Laboratory results from patent EP1380291A1, “PDE IV inhibitors for treating multiple sclerosis” (Schering Aktiengesellschaft, priority 1994, dated 1995).
pEC50: −log10 of the molar value.

What was measured:
[1] = tested on: Experimental Allergic Encephalomyelitis (EAE); assay: Prevention of EAE by Rolipram treatment in marmosets immunized with human brain white matter homogenate; assay type: in vivo, Callithrix jacchus (common marmoset); settings: treatment removed on day 60 following immunization; two marmosets
[2] = tested on: EAE after adoptive cell transfer (tEAE); assay: EAE after adoptive cell transfer (tEAE) in Lewis rats; assay type: in vivo; settings: n = 5
Description: (§1) The results of our in vivo findings prompted us to perform treatment experiments in EAE after active immunization (aEAE) and adoptive cell transfer (tEAE) in Lewis rats. […] In clinically manifest EAE, treatment was started within 6 hours of the onset of symptoms. […] In tEAE similar effects were observed. […] Treatment after onset of symptoms also lead to a marked reduction in maximum severity (treated group: MMS 0.7 ± 0.10, n = 5; vehicle treated matched controls 2.45 ± 0.56, n = 5, p 0.01).

[3] = tested on: Experimental Allergic Encephalomyelitis (EAE); assay: Treatment of active (chronic) EAE with Rolipram in a marmoset; assay type: in vivo, Callithrix jacchus (common marmoset); settings: escalating doses of Rolipram in DMSO
[4] = tested on: EAE after active immunization (aEAE); assay: EAE after active immunization (aEAE) in Lewis rats; assay type: in vivo; settings: drug given from the day of active immunization until day 11
Description: as §1
In order to distinguish further between a long-term prophylactic or a temporary suppressive effect, animals received the drug from the day of active immunization until day 11.
Histological analysis was performed on selected animals with aEAE. […] In a study on EAE, induced by myelin oligodendrocyte glycoprotein (MOG)-specific T-cells, the lack of neurological signs was ascribed to a decrease of macrophages and parenchymal inflammation, whereas perivascular inflammation and the synthesis of TNF, IFN-gamma, and interleukin-6 was clearly present. In our system, however, the timely onset of paralysis and the morphologically similar appearance of infiltrates in some of the treated animals argues against such a phenomenon. […]

[5] = tested on: encephalitogenic CD4+ MBP-specific rat TCL (L1402); assay: TNF/LT production by an encephalitogenic MBP-specific rat T-cell line, cytotoxicity bioassay; assay type: cell-based
Excerpt: To assess the ability of rolipram alone or in various combinations as described to modify autoimmune processes, we investigated its influence on TNF production in vitro by MBP-specific T-cell lines from MS patients and Lewis rats. MBP is a major candidate antigen in MS, and T-cell-mediated immunity is of crucial importance in its pathogenesis. Similar to EAE, MBP-specific T-cells in humans are often cytotoxic, of Th1 type secreting interferon (IFN)-gamma and TNF/LT, and recognize epitopes that are also encephalitogenic in EAE.
Similar results were found using an encephalitogenic CD4+ MBP-specific rat TCL (L1402). […] Previous investigations had shown that inhibition of cAMP PDE by rolipram is stereospecific.
TNF and LT may both be produced by autoactive T-cells. CD4+ cells have been reported to be the major source of TFN in autoimmune insulitis of NOD mice. The cytokine bioassay for TNF/LT detection employed here is sensitive to TNF and LT, but is 200 times more sensitive to the former.

[6] = tested on: mouse and rat forebrain tissue; settings: in vitro and in vivo binding with 3H-rolipram; previous investigations; cited from earlier work

Q: Which results are given for `COc1ccc(C2CNC(=O)C2)cc1OC1CCCC1` (stereo not drawn) [Rolipram, 4-[(3-cyclopentyloxy)-4-methoxyphenyl]-2-pyrrolidinone]?
A: day on which clinical signs of EAE began following withdrawal of Rolipram [1]: 17 days; mean maximum score (MMN) ([2]; prophylactic treatment, p < 0.01 versus controls): 0.3 ± 0.11; MMS (maximum severity) ([2]; treatment after onset of symptoms): 0.7 ± 0.10; day of MRI improvement following initiating Rolipram treatment [3]: 14 days; day of marked improvement after initiating treatment [3]: 10 days; delay of aEAE [4]: 3.5 days

Q: With `COc1ccc(C2CNC(=O)C2)cc1OC1CCCC1` (single isomer, unassigned; (+)) [(+)-rolipram] as the compound, how does the pEC50 ([5]; inhibition of TNF/LT production, given alone) read?
A: 6.55

Q: For `COc1ccc(C2CNC(=O)C2)cc1OC1CCCC1` (single isomer, unassigned; (-)) [(-)-rolipram], which “times higher affinity than the (+)-enantiomers” value [6] is on record?
A: 15-30 times

Q: And the “times more effective than the (+)-enantiomer (inhibition of TNF/LT production)” value [5]?
A: 55 times
